Test results as given in US4659710A, “1,7-Naphthyridine derivatives and pharmaceutical compositions” (SS Pharmaceutical Co., Ltd., priority 1985, dated 1987).

Experiments:
[1] = tested on: spontaneously-beating atrial muscle; assay: Cardiotonic effects: contractile force and heart rate of isolated spontaneously beating atria; design: species or system Hartley male guinea pig; conditions: cumulative
Experimental: The heart of a Hartley male guinea pig having a body weight of 500-800 g was removed. Its atrial muscles were isolated in Krebs-Henseleit's solution. A spontaneously-beating atrial muscle was suspended, in a bath containing 20 ml of Krebs-Henseleit's solution gassed with 95% O2 +5% CO2 at 32° C. Thereafter, the contractile force and its heart rate were measured. After stabilization, test compounds which were dissolved in a small amount of 1N hydrochloric acid or 0.1N hydrochloric acid and then diluted with a physiological saline, were administered cumulatively ([…]) to evaluate effects on the contractile force. The maximum percent change in increase of the contractile force induced by test compounds was determined and regarded as an index for cardiotonic (positive inotropic) effects. Heart rate increasing or decreasing effects (positive or negative chronotropism) were also observed.

[2] = tested on: carrageenan-induced swelling of the right hind paw; assay: Anti-inflammatory effects: inhibition of carrageenan-induced hind paw swelling; assay type: in vivo, Wistar rats; conditions: oral, 60 min before carrageenan, foot volume 3 hours later
Experimental: After fasting a group of five Wistar rats of 6 weeks old for 18 hours, each test compound dissolved or suspended in a 0.5% solution of sodium carboxymethylcellulose (CMC-Na) was administered orally. Sixty minutes after the administration of the test compound, 0.1 ml of a 1% carrageenan solution was injected into subplanter surface of the right hind paw of each rat. The foot volume (A) was measured 3 hours later. From the foot volume (B) before the administration of carrageenan, the percent swelling ((A-B)/B×100) was calculated and compared with those of control rats.
Inhibition (%)= [formula]

[3] = tested on: ouabain-induced arrhythmia; assay: Antiarrhythmic effects: amount of ouabain required to induce arrhythmia; assay type: in vivo, Hartley male guinea pigs; conditions: 10 mg/kg i.v., ouabain infused at 4 μg/kg/min; for amount of ouabain required to induce unequal intervals of R-R wave: control 59.2; for amount of ouabain required to induce ventricular extrasystole or A-V block: control 80.5; for amount of ouabain required to induce ventricular extrasystole or A-V block / amount of ouabain required to induce cardiac arrest / amount of ouabain required to induce ventricular fibrillation: in µg/kg (unit assumed); for amount of ouabain required to induce cardiac arrest: control 246.6; for amount of ouabain required to induce ventricular fibrillation: control 170.0
Experimental: Using a group of five Hartley male guinea pigs (body weights: 530-990 g), their electrocardiograms were recorded from a limbic lead II under anesthesia with urethane 1.2 g/kg i.p. to investigate the antiarrhythmic effects. Namely, each test compound dissolved in 0.1N hydrochloric acid and diluted with a physiological saline was intravenously administered at a dose of 10 mg/kg. Immediately after the administration of the test compound, ouabain was continuously infused at a rate of 4 μg/kg/min through a polyethylene cannula inserted in the jugular vein of the guinea pigs so as to induce arrhythmia. The antiarrhythmic effects were judged from the amount of ouabain required to induce unequal intervals of R-R wave, ventricular extrasystole or A-V block, ventricular fibrillation and cardiac arrest.

Acute toxicity, mouse = conditions: in vivo, po
Acute toxicity, rat = conditions: in vivo, po

SMILES | Chronotropy, % of Control (in parentheses) ([1]; 3 × 10^-5 g/ml) | Inotropy, % of Control ([1]; 3 × 10^-5 g/ml) | Chronotropy, % of Control (in parentheses) ([1]; 3 × 10^-6 g/ml) | Inotropy, % of Control ([1]; 3 × 10^-6 g/ml) | Chronotropy, % of Control (in parentheses) ([1]; 10^-4 g/ml) | Inotropy, % of Control ([1]; 10^-4 g/ml) | Chronotropy, % of Control (in parentheses) ([1]; 10^-5 g/ml) | Inotropy, % of Control ([1]; 10^-5 g/ml) | Chronotropy, % of Control (in parentheses) ([1]; 10^-6 g/ml) | Inotropy, % of Control ([1]; 10^-6 g/ml) | LD50 (Acute toxicity, mouse) | other results
CC(=O)Nc1cc2cccnc2c(NCCCO)n1 [Compound No. 8] | 6.8% | 33.4% | 2.7% | 9.6% | 12.9% | 64.1% | 4.0% | 16.4% | 1.1% | 4.1% |  | 
CC(=O)Nc1cc2cccnc2c(NCC(O)CO)n1 (stereo not drawn) [compound 9] |  |  |  |  |  |  |  |  |  |  |  | Inhibition (%) ([2]; 30 mg/kg): 27.1%
CCOc1nc(NC(C)=O)cc2cccnc12 [compound 34] | 25.7% | 38.7% | 10.3% | 13.3% | 46.0% | 89.2% | 18.5% | 24.9% | 5.3% | 6.3% |  | 
CC(=O)Nc1cc2cccnc2c(N2CCN(C)CC2)n1 [compound 19] |  |  |  |  |  |  |  |  |  |  |  | amount of ouabain required to induce unequal intervals of R-R wave [3]: 68.9 µg/kg; amount of ouabain required to induce ventricular extrasystole or A-V block [3]: 146.0; amount of ouabain required to induce cardiac arrest [3]: 392.1
Nc1cc2cccnc2c(N2CCN(CCO)CC2)n1 [Compound No. 4] |  |  |  |  |  |  |  |  |  |  | > 1000 mg/kg | Inhibition (%) ([2]; 30 mg/kg): 54.0%; amount of ouabain required to induce unequal intervals of R-R wave [3]: 59.1 µg/kg; amount of ouabain required to induce ventricular extrasystole or A-V block [3]: 78.9; amount of ouabain required to induce ventricular fibrillation [3]: 216.5; amount of ouabain required to induce cardiac arrest [3]: 277.5
CC(=O)Nc1cc2cccnc2c(N2CCN(CCO)CC2)n1 [Compound No. 22, 6-acetamido-8-[4-(2-hydroxyethyl)-1-piperazinyl]-1,7-naphthyridine] |  |  |  |  |  |  |  |  |  |  | 1600 mg/kg | Inhibition (%) ([2]; 10 mg/kg): 42.4%; LD50 (Acute toxicity, rat): > 3000 mg/kg; amount of ouabain required to induce unequal intervals of R-R wave [3]: 69.6 µg/kg; amount of ouabain required to induce ventricular extrasystole or A-V block [3]: 109.6; amount of ouabain required to induce ventricular fibrillation [3]: 285.4; amount of ouabain required to induce cardiac arrest [3]: 399.3
Nc1cc2cccnc2c(N2CCOCC2)n1 [Compound No. 3, 6-amino-8-morpholino-1,7-naphthyridine] |  |  |  |  |  |  |  |  |  |  |  | Inhibition (%) ([2]; 100 mg/kg): 55.0%
CC(=O)Nc1cc2cccnc2c(N(C)C)n1 [Compound No. 16] | 7.0% | 36.8% | 1.6% | 4.5% | 19.0% | 103.2% | 3.3% | 12.5% |  |  | > 500 mg/kg | 
CNc1nc(NC(C)=O)cc2cccnc12 [compound 5] | 8.6% | 29.0% | 3.6% | 8.6% | 13.0% | 59.1% | 5.9% | 12.9% | 1.7% | 4.7% |  | 
CCCCCCCC(=O)Nc1cc2cccnc2c(N2CCN(CCO)CC2)n1 [compound 25] |  |  |  |  |  |  |  |  |  |  |  | Inhibition (%) ([2]; 10 mg/kg): 44.6%
CC(=O)Nc1cc2cccnc2c(NCc2cccnc2)n1 [Compound No. 13] | 1.9% | 52.3% | 1.6% | 8.7% | -11.8% | 92.9% | 3.1% | 24.6% | 0.2% | 2.6% | > 500 mg/kg | 
